Reference: patent publication US20240390379A1, “EZH2 Inhibition in Pancreatic Cancer” (University of Massachusetts, priority 2021, published 2024)

Test system: KPC1 PDAC cells
Assay: qRT-PCR of senescence and SASP gene expression in KPC1 PDAC cells with EZH2 methyltransferase inhibitors
Type: cell-based, mouse
Details: GSK126 1 μM or tazemetostat 5 μM with trametinib 25 nM and palbociclib 500 nM, 8 days
Description: P values in b-c were calculated using two-tailed, unpaired Student's t-test.
Trametinib (S2673), palbociclib (S1116), and GSK126 (S7061) were purchased from Selleck chemicals for in vitro studies. Drugs for in vitro studies were dissolved in DMSO (vehicle) to yield 10 mM stock solutions and stored at −80° C. For in vitro studies, growth media with or without drugs was changed every 2-3 days.
Total RNA was isolated using the RNeasy Mini Kit (Qiagen), and complementary DNA (cDNA) was obtained using the TaqMan reverse transcription reagents (Applied Biosystems).
Flow cytometry was performed on a BD LSR II, and data were analyzed using FlowJo (TreeStar).

CC[C@H](C)n1cc(C)c2c(C(=O)NCc3c(C)cc(C)[nH]c3=O)cc(-c3ccc(N4CCNCC4)nc3)cc21 [GSK126]
Pro-inflammatory SASP factors and immunomodulatory cell surface proteins: induced pro-inflammatory SASP factors and immunomodulatory cell surface proteins
Senescence-associated cell cycle arrest: without impacting senescence-associated cell cycle arrest
